Patent publication US20260345641A1, “COMPOSITIONS AND USES THEREOF” (Algorae Pharmaceuticals Ltd, priority 2023, published 2026)

System: SH-SY5Y cells
Assay: Gene expression analysis by RNA sequencing in the presence of Aβ
Type: cell-based, human
Conditions: 5 μM, with Aβ
From the text: The SH-S5Y5 neuroblastoma cell line was used for pre-clinical analysis. The SH-S5Y5 cell line is commonly used as a model for neurodegenerative disorders as the cells can be converted to various types of functional neurons by the addition of specific compounds (see, e.g., Xicoy et al., 2017, Molecular Neurodegeneration, 12: 10). In addition, the SH-S5Y5 cell line has been used widely in experimental neurological studies, including analysis of neuronal differentiation, metabolism, and function related to neurodegenerative processes, neurotoxicity and neuroprotection (see, e.g., Datki et al., 2003, Brain Research Bulletin, 62(3): 22-229; and Xie et al., 2010, Chinese Medical Journal, 123(8): 1086-1092).
Total RNA was isolated from cells using TRIzol in accordance with the manufacturer's instructions (Invitrogen, Carlsbad, CA, USA). RNA concentration and quality was assessed using a NanoDrop spectrophotometer. Only samples with a 260/280 ratio of ≥1.8 were used for further analysis.
Messenger RNA (mRNA) was purified from total RNA using poly-T oligo attached magnetic beads. After fragmentation, cDNA synthesis was performed in accordance with the manufacturer's instructions (Illumina, San Diego, CA, USA) to generate a directional and non-directional library. Libraries were checked with Qubit, real-time PCR was performed for quantification, and size distribution detection was performed using the Bioanalyzer. Quantified libraries were pooled and sequenced on an Illumina platform, according to the manufacturer's instructions.
Raw reads were filtered and mapped to human reference genome (GRCh38/hg38) using HISAT2. Differential gene expression analysis was performed using R Package DEG seq2. […] Manual annotation of genes previously associated with specific neurodegenerative disorders and dementias was performed following a text mining analysis.

## COc1cc2c(cc1OC)C(=O)C(CC1CCN(Cc3ccccc3)CC1)C2 (stereo not shown) [Donepezil]
Control 7.789, P 0.022
  ATP13A2 gene expression: 5.931
Control 7.889, P 0.013
  TUBB4A gene expression: 12.522
Control 8.149, P 0.002
  C19orf12 gene expression: 8.062
Control 8.395, P 0.009
  COMT gene expression: 7.242
Control 8.460, P 0.007
  CLCN6 gene expression: 9.489
Control 8.472, P 0.018
  SLC2A1 gene expression: 9.539
Control 8.491, P 0.023
  KIF5A gene expression: 7.978
Control 8.733, P 0.049
  MT-TE gene expression: 14.784
Control 8.739, P 0.008
  ASTN2 gene expression: 10.467
Control 8.840, P 0.016
  GAP43 gene expression: 14.884
Control 8.986, P 0.035
  HTRA1 gene expression: 3.452
Control 9.062, P 0.018
  GPT2 gene expression: 9.323
Control 9.086, P 0.007
  RELN gene expression: 8.830
Control 9.232, P 0.018
  MAP2 gene expression: 13.284
Control 9.502, P 0.001
  FAR1 gene expression: 9.330
Control 9.616, P 0.008
  ULK1 gene expression: 7.435
Control 9.625, P 0.053
  MT-TR gene expression: 7.395
Control 9.982, P 0.001
  AUH gene expression: 9.689
Control 10.132, P 0.055
  UBQLN2 gene expression: 10.681
Control 10.247, P 0.010
  TP53 gene expression: 10.184
Control 10.517, P 0.005
  RNF216 gene expression: 11.360
Control 10.575, P 0.020
  LMNB1 gene expression: 13.789
Control 10.591, P 0.002
  SDHA gene expression: 10.690
Control 10.619, P 0.034
  CTSF gene expression: 12.207
Control 10.884, P 0.000
  PHIP gene expression: 10.131
Control 10.972, P 0.010
  NEAT1 gene expression: 8.854
Control 10.993, P 0.009
  GSR gene expression: 14.077
Control 11.016, P 0.010
  NBEA gene expression: 12.180
Control 11.029, P 0.010
  HEXB gene expression: 11.767
Control 11.189, P 0.025
  NIPA1 gene expression: 10.862
Control 11.237, P 0.009
  PDGFRA gene expression: 11.624
Control 11.268, P 0.004
  SORT1 gene expression: 9.054
Control 11.385, P 0.035
  DLAT gene expression: 10.390
Control 11.863, P 0.001
  CTSA gene expression: 12.014
Control 11.948, P 0.026
  AIFM1 gene expression: 10.769
Control 12.106, P 0.000
  KIF4A gene expression: 12.317
Control 12.209, P 0.057
  PIK3CA gene expression: 9.685
Control 12.408, P 0.006
  MT-TM gene expression: 7.334
Control 12.549, P 0.033
  PSEN1 gene expression: 10.463
Control 12.563, P 0.049
  CST3 gene expression: 14.607
Control 12.578, P 0.015
  PNKP gene expression: 13.753
Control 12.586, P 0.050
  UBE4A gene expression: 11.589
Control 12.767, P 0.010
  PANK2 gene expression: 5.414
Control 12.825, P 0.001
  PINK1 gene expression: 9.640
Control 12.857, P 0.025
  SERPINI1 gene expression: 12.924
Control 13.063, P 0.010
  NEFL gene expression: 22.943
Control 13.758, P 0.001
  TOMM40 gene expression: 15.441
Control 13.790, P 0.022
  PMPCA gene expression: 11.969
Control 13.838, P 0.000
  PRKAR1B gene expression: 14.889
Control 14.274, P 0.012
  NGF gene expression: 1.165
Control 14.483, P 0.017
  EIF2B5 gene expression: 12.247
Control 14.777, P 0.018
  NEFH gene expression: 13.335
Control 15.661, P 0.052
  TBK1 gene expression: 12.891
Control 15.666, P 0.035
  SPG21 gene expression: 17.306
Control 15.688, P 0.029
  MIR103A2 gene expression: 9.508
Control 16.143, P 0.004
  DNAJC5 gene expression: 18.101
Control 16.174, P 0.024
  SDHAF1 gene expression: 17.490
Control 16.206, P 0.012
  ALDH18A1 gene expression: 18.398
Control 16.315, P 0.045
  BIRC6 gene expression: 14.545
Control 16.386, P 0.025
  SMCR8 gene expression: 9.923
Control 16.783, P 0.011
  SCARB2 gene expression: 20.762
Control 17.149, P 0.014
  HCFC1 gene expression: 21.365
Control 17.283, P 0.000
  MT-TV gene expression: 9.882
Control 18.066, P 0.016
  KCTD7 gene expression: 14.737
Control 18.213, P 0.001
  CDK1 gene expression: 31.665
Control 18.358, P 0.008
  WDR45 gene expression: 10.730
Control 18.408, P 0.038
  ATP6V1A gene expression: 16.105
Control 19.279, P 0.006
  ATXN7L3B gene expression: 20.868
Control 19.436, P 0.034
  MT-TY gene expression: 14.109
Control 19.482, P 0.010
  DNAJB6 gene expression: 13.438
Control 19.578, P 0.001
  MT-TN gene expression: 4.546
Control 19.641, P 0.019
  DNMT1 gene expression: 19.982
Control 19.713, P 0.000
  HRAS gene expression: 18.552
Control 19.818, P 0.004
  SNHG1 gene expression: 17.384
Control 20.006, P 0.004
  SYP gene expression: 15.060
Control 20.034, P 0.031
  BACE1 gene expression: 16.945
Control 20.557, P 0.010
  ACHE gene expression: 15.012
Control 21.060, P 0.050
  SMARCC1 gene expression: 23.108
Control 21.622, P 0.000
  CPT1C gene expression: 23.209
Control 22.012, P 0.020
  SETD1A gene expression: 11.489
Control 23.073, P 0.013
  LRP10 gene expression: 19.237
Control 23.288, P 0.016
  DIAPH1 gene expression: 23.289
Control 23.590, P 0.040
  NDUFS4 gene expression: 31.457
Control 24.343, P 0.029
  TIA1 gene expression: 18.552
Control 24.655, P 0.014
  SORCS1 gene expression: 27.879
Control 24.804, P 0.015
  MADD gene expression: 17.028
Control 25.187, P 0.004
  MAP1B gene expression: 31.197
Control 25.949, P 0.007
  PNPLA6 gene expression: 14.472
Control 26.112, P 0.003
  HTRA2 gene expression: 24.427
Control 26.563, P 0.006
  FUS gene expression: 23.115
Control 26.776, P 0.015
  CHRNA3 gene expression: 35.011
Control 27.791, P 0.022
  STARD7 gene expression: 25.690
Control 28.376, P 0.019
  RGS4 gene expression: 23.445
Control 28.427, P 0.027
  RRM2B gene expression: 15.106
Control 29.629, P 0.024
  OTUD5 gene expression: 29.255
Control 29.814, P 0.009
  MMADHC gene expression: 28.376
Control 31.064, P 0.022
  PHF1 gene expression: 22.592
Control 31.247, P 0.010
  XPR1 gene expression: 53.075
Control 31.479, P 0.015
  TFG gene expression: 30.210
Control 32.375, P 0.003
  DEGS1 gene expression: 28.878
Control 32.378, P 0.007
  SQSTM1 gene expression: 38.955
Control 32.383, P 0.017
  TCF4 gene expression: 36.707
Control 32.930, P 0.001
  PDGFRB gene expression: 20.075
Control 33.422, P 0.001
  UNC5C gene expression: 34.253
Control 34.958, P 0.008
  COL3A1 gene expression: 29.884
Control 37.146, P 0.001
  MT-TQ gene expression: 28.576
Control 38.202, P 0.008
  NID1 gene expression: 51.536
Control 38.304, P 0.003
  COASY gene expression: 24.487
Control 40.014, P 0.054
  TMEM230 gene expression: 35.809
Control 43.913, P 0.009
  GRN gene expression: 38.715
Control 44.413, P 0.023
  SOD1 gene expression: 54.134
Control 44.506, P 0.001
  HNRNPDL gene expression: 58.385
Control 46.194, P 0.005
  EIF4G1 gene expression: 47.437
Control 49.074, P 0.025
  VCP gene expression: 49.391
Control 51.257, P 0.048
  ATP6V1E1 gene expression: 41.488
Control 53.427, P 0.010
  GBA2 gene expression: 42.069
Control 54.907, P 0.006
  PARK7 gene expression: 62.824
Control 63.840, P 0.016
  EEF1A2 gene expression: 77.336
Control 74.063, P 0.023
  MT-TP gene expression: 57.524
Control 88.738, P 0.014
  U2AF2 gene expression: 53.895
Control 108.757, P 0.004
  MT-TS1 gene expression: 75.947
Control 137.725, P 0.007
  PRDX1 gene expression: 123.771
Control 180.363, P 0.003
  HNRNPA1 gene expression: 274.269
Control 193.754, P 0.003
  GNAS gene expression: 202.087
Control 281.366, P 0.001
  MT-ND6 gene expression: 64.249
Control 293.865, P 0.033
  APP gene expression: 159.632
Control 386.845, P 0.010
  PFN1 gene expression: 384.213
Control 388.214, P 0.017
  MT-ATP8 gene expression: 298.175
Control 423.318, P 0.015
  FTL gene expression: 514.018
Control 1304.948, P 0.012
  MT-ND5 gene expression: 1379.984
Control 2654.440, P 0.010
  MT-ND1 gene expression: 2177.390
Control 2855.888, P 0.019
  MT-ND2 gene expression: 2011.949
Control 4523.043, P 0.003
  MT-CYB gene expression: 4140.601
Control 6360.482, P 0.003
  MT-CO3 gene expression: 6139.890
Control 6754.328, P 0.009
  MT-ATP6 gene expression: 5525.655
First listing, control 3.205, P 0.014
  COL4A1 gene expression: 6.341
First listing, control 7.376, P 0.015
  APBB2 gene expression: 5.038
First listing, control 7.739, P 0.018
  MTR gene expression: 9.723
First listing, control 11.205, P 0.017
  DNAJC6 gene expression: 14.537
First listing, control 25.053, P 0.010
  TWNK gene expression: 15.384
Second listing, control 3.206, P 0.014
  COL4A1 gene expression: 4.649
Second listing, control 7.118, P 0.015
  APBB2 gene expression: 6.231
Second listing, control 8.443, P 0.018
  MTR gene expression: 8.954
Second listing, control 12.142, P 0.017
  DNAJC6 gene expression: 12.821
Second listing, control 22.506, P 0.010
  TWNK gene expression: 19.867
